According to patent publication US20260256140A1, “BIPHENYL COMPOUNDS CONTAINING SUBSTITUTED SULFIDE (SULFOXIDE) GROUPS AND USES THEREOF” (METISA BIOTECHNOLOGY CO., LTD, priority 2021, published 2026):

What was measured:
Format in all cases: in vivo
Mythimna separata = assay: Activity against Mythimna separata, Airbrush spray on maize leaf pieces; conditions: 500 mg/L, 3 days after administration, 3rd-instar larvae
Method: Insecticidal activity determination experiments were conducted on several insects using the compound of the present invention and control compounds KC1, KC2, and KC3. Determination methods were described below. The compounds to be determined were each dissolved in a mixed solvent of acetone/methanol (1:1), and diluted using water containing 0.1% (wt) tween-80 to desired concentrations. With Mythimna separata and Plutella xylostella as targets, Airbrush spray method was adopted for activity determination. Determination Method: maize leaves were cut into 2 cm leaf pieces, and the front and back of each leaf piece were sprayed under an Airbrush spray treatment pressure of 10 psi (approximate to 0.7 kg/cm^2) and with a spray volume of 0.5 mL. After drying in the shade, 10 3rd-instar larvae were inoculated for each treatment, and each treatment was repeated for 3 times. After the treatment, the leaf pieces were put into an observation chamber at 25° C. and with a relative humidity of 60% to 70%, and the number of living larvae was investigated 3 days after the administration of the compounds, and the death rates were calculated.

Plutella xylostella = assay: Activity against Plutella xylostella, Airbrush spray on cabbage leaf discs; conditions: 500 mg/L, 3 days after administration, 3rd-instar larvae
Method: Insecticidal activity determination experiments were conducted on several insects using the compound of the present invention and control compounds KC1, KC2, and KC3. Determination methods were described below. The compounds to be determined were each dissolved in a mixed solvent of acetone/methanol (1:1), and diluted using water containing 0.1% (wt) tween-80 to desired concentrations. With Mythimna separata and Plutella xylostella as targets, Airbrush spray method was adopted for activity determination. Determination Method: cabbage leaves were formed into leaf discs having a diameter of 2 cm using a puncher, and the front and back of each leaf disc were sprayed under an Airbrush spray treatment pressure of 10 psi (approximate to 0.7 kg/cm^2) and with a spray volume of 0.5 mL. After drying in the shade, 10 3rd-instar larvae were inoculated for each treatment, and each treatment was repeated for 3 times. After the treatment, the leaf discs were placed into an observation chamber at 25° C. and with a relative humidity of 60% to 70%, and the number of living larvae was investigated 3 days after the administration of the compounds, and the death rates were calculated.

Tetranychus cinnabarinus = assay: Greenhouse acaricidal activity determination on Phaseolus vulgaris seedlings; conditions: 3 days after administration, parallel comparison
Method: Greenhouse acaricidal activity determination was carried out on the compounds of the present invention. A determination method was described below. […] Two true leaves of Phaseolus vulgaris seedlings were inoculated with adult Tetranychus cinnabarinus and a basic number was investigated. An entire seedling was then sprayed using a hand-held sprayer. Each treatment was repeated for 3 times. After the treatment, the seedlings were placed into a standard observation chamber, and the number of living mites was investigated 72 hours later, and the death rates were calculated. Parallel comparison experiments on acaricidal activity were conducted for Tetranychus cinnabarinus using the compounds 1.22, 1.23, and 1.24 and control compounds (3 days after the administration of the compounds), and the determination method was as described above; and the results were shown in Table 14: […]

Row | SMILES | death rate for Mythimna separata (Mythimna separata) | death rate for Plutella xylostella (Plutella xylostella) | Death Rate (%, 3 days after the administration of the compounds) 1.25 mg/L (Tetranychus cinnabarinus) | Death Rate (%, 3 days after the administration of the compounds) 2.5 mg/L (Tetranychus cinnabarinus)
1 | Cc1cc(F)c(-c2cc(SCC(F)(F)F)c(C)cc2F)cc1SCC(F)(F)F [KC1] | 0% | 0% | 22.9% | 52.0%
2 | Cc1cc(F)c(-c2cc([S+]([O-])CC(F)(F)F)c(C)cc2F)cc1SCC(F)(F)F (stereo not drawn) [KC2] | 0% | 0% | 0% | 50.0%
3 | Cc1cc(F)c(-c2cc([S+]([O-])CC(F)(F)F)c(C)cc2F)cc1[S+]([O-])CC(F)(F)F (stereo not drawn) [KC3] | 0% | 0% | 0% | 0%
